Literature values, collected in patent US20060063742A1, “Method of treatment for or protection against lymphedema” (priority 2004, published 2006).

Assays:
[1] = test system: mice; conditions: intravenously, doses higher than 3750 mg/kg
[2] = test system: humans; conditions: doses exceeding 40 g/m^2
[3] = test system: dogs; conditions: intravenously, doses higher than 3750 mg/kg

Row | SMILES | accepted oral LD50 | adverse effects [1] | adverse effects [2] | adverse effects [3]
1 | [Cl-].[Na+] [common table salt] | 3750 mg/kg | – | – | –
2 | O=S(=O)([O-])CCSSCCS(=O)(=O)[O-].[Na+].[Na+] [Dimesna, disodium 2,2′-dithiobis ethane sulfonate] | – | no adverse effects | no adverse effects | no adverse effects
